From article PMC4990076 (MedChemComm, 2016)

Molecular target: human Icmt (hIcmt) (Homo sapiens, UniProt O60725)
Assay: in vitro vapor diffusion assay for hIcmt activity
Assay type: biochemical
Settings: not given

Chain of human Icmt (hIcmt) (O60725 whole entry, the tested form may be a part): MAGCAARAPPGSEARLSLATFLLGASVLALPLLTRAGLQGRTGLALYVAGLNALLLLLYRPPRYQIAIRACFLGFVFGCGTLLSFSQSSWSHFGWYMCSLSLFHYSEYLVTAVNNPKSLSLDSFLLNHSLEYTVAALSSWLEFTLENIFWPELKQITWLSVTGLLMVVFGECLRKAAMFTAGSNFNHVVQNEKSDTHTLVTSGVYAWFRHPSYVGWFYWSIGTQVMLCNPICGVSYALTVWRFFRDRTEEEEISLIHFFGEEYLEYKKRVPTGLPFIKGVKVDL

hIcmt inhibitory activity (in words) | SMILES
inactive | OC(c1ccccc1)(c1cccs1)C1CCOCC1 (centres unmarked) [Compound 9]
not active | CN1CCC(C(c2ccc3ccccc3c2)c2cccs2)CC1 (centres unmarked) [Compound 12]
abolished activity | c1ccc2cc(CC3CCOCC3)ccc2c1 [Compound 7]

Second part, the compound before the results:

SMILES | hIcmt inhibitory activity (in words)
c1ccc(C(=C2CCOCC2)c2cccs2)cc1 [Compound 10] | inactive
O=C(c1ccc2ccccc2c1)C1CCOCC1 [Compound 8] | abolished activity
c1ccc(C(=C2CCOCC2)c2ccc3ccccc3c2)cc1 [Compound 6] | inactive
c1csc(C(c2ccc3ccccc3c2)C2CCNCC2)c1 (centres unmarked) [Compound 11] | not active

Test system: Ras localization
Assay: not given
Settings: at micromolar concentrations; cited from earlier work

SMILES | Ras mislocalization in cells
CCCCCCCCn1cc(CC(N)=O)c2cc(-c3cccc(C)c3)ccc21 [Cysmethynil] | causes Ras mislocalization
